{
  "source": "patent US10577358B2",
  "about": "“Strigolactone formulations and uses thereof” (SOUND AGRICULTURE COMPANY, priority 2013, dated 2020)",
  "key": {"[1]": {"system": "Striga hermonthica seeds", "conditions": "at 10^-8 M concentrations; cited from earlier work"}, "[2]": {"system": "Tomato seedlings", "test": "Salinity tolerance in tomato seedlings", "type": "in vivo", "conditions": "10 mg/mL; 250 mL water with 29.2 g/L NaCl 24 hours after treatment; 6 hours after salt irrigation", "protocol": "Tomato seedlings were treated with 10 mg/mL AB01 or mock treated. 24 hours after treatment, they were irrigated with 250 mL water containing 29.2 g/L salt (NaCl)."}, "[3]": {"system": "Alfalfa seedlings", "test": "Salinity tolerance in alfalfa seedlings", "type": "in vivo", "conditions": "1 mg/mL; irrigated every 48 hours with 100 mL water containing 35 g/L NaCl; after 5 days", "protocol": "Alfalfa was grown from seeds for 14 days. Seedlings were treated with 1 mg/mL AB01 or mock treated. After treatment, plants were irrigated with 100 mL water containing 35 g/L dissolved salt (NaCl). Irrigation was performed every 48 hours and plants monitored for symptoms of salinity stress."}, "[4]": {"system": "MAX1 A. thaliana mutants", "test": "Complementation of Arabidopsis mutant deficient in strigolactone biosynthesis", "type": "in vivo, Arabidopsis thaliana", "conditions": "1 uM as an irrigation supplement vs mock treatment", "protocol": "To further validate the bioactivity of AB01 we tested whether the compound could complement mutants of the model plant Arabidopsis thaliana that are deficient in strigolactone biosynthesis. […] We grew MAX1 A. thaliana under standard conditions and added 1 uM AB01 as an irrigation supplement, or a mock treatment. […] Thus, the synthetic AB01 is sufficiently similar to strigolactone to both to trigger Striga germination as well as substitute for the natural compound in a model plant."}, "[5]": {"system": "Seeds of Striga asiatica", "test": "Triggering Striga seed germination", "type": "in vivo", "conditions": "for bioactivity in Striga germination assay: FIG. 1", "protocol": "(B) Bioactivity of synthetic SL. Seeds of Striga asiatica were exposed to SL (right) or a mock treatment (left). […] (C) Synthetic biological pathway for the production of SL in yeast, consisting of enzymes of plant and microbial origin. We tested the ability of AB01 to trigger the germination of Striga seeds. Seeds of Striga asiatica were conditioned by incubation in the dark at 30 degrees for 7 days, and dilutions of the AB01 material in water were applied. We observed that concentrations of 1 nanogram per liter and greater were able to trigger germination of approximately 30% of the seeds, which is similar to published efficiencies and activity for plant-derived strigolactone (FIG. 1A-B)."}, "[6]": {"system": "Wheat", "test": "Drought tolerance in greenhouse wheat", "type": "in vivo", "conditions": "1 mg in 100 mL water; irrigation stopped; 7 days post treatment", "protocol": "Wheat was grown in greenhouse conditions from seed for 6 weeks with adequate irrigation. Plants were treated with 1 mg of AB01 resuspended in acetone and diluted in 100 mL water, or mock treated as a control. Irrigation was stopped and plants monitored for symptoms of drought stress."}, "[7]": {"system": "Seeds of O. cumana", "test": "Germination triggering of parasitic weed seeds", "type": "in vivo", "conditions": "AB01 compared with 5-deoxystrigol; 48 hours post-treatment, triplicate", "protocol": "Seeds of O. cumana were primed by incubation on glass fiber filters in darkness at room temperature for 3 days. Specified concentrations of AB01 or 5-dS were applied and seeds were monitored at 48 hours post-treatment. Germination was evident by appearance of haustoria. Experiments were performed in triplicate."}, "[8]": {"system": "Striga", "test": "Field trial Siaya County, Kenya: reduction of Striga", "type": "in vivo", "conditions": "1 gram per acre sprayed 1 week prior to planting", "protocol": "(§1) Field trial was performed from August 2013 to January 2014 in Siaya County, Kenya. AB01 treated plots were sprayed with a 1 gram per acre dose 1 week prior to planting. Treatment was accomplished by resuspending solid AB01 in 1 mL of acetone, and diluting in 4000 L of water. 3 replicate treated and untreated plots (100 m2 each) were performed. […] (C) The biomass of Striga from each plot was collected and measured after harvest."}, "[9]": {"system": "grain crop in Striga infested plots", "test": "Field trial Siaya County, Kenya: grain yield", "type": "in vivo", "conditions": "1 gram per acre sprayed 1 week prior to planting", "protocol": "We have field trials underway outside of Kisumu, Kenya to test the efficacy of this treatment on maize yields in Striga infested fields.\nas §1"}, "[10]": {"system": "Dekalb 67-86 RR corn seedlings", "test": "Acute water stress in corn seedlings (leaf rolling score)", "type": "in vivo", "conditions": "40 mL of 0.1 mM or 1.0 mM; 6th day without irrigation; greenhouse", "protocol": "Corn seedlings were scored as unstressed, moderately water stressed and severely water stressed as measured by visual inspection of leaf rolling, a response of corn to water stress. Dekalb 67-86 RR corn seeds were planted and then irrigated through 7 days after emergence in a greenhouse setting. Seedlings were then treated with 40 mL of water, 0.1 mM AB01 or 1.0 mM AB01 and irrigation ceased. On the 6th day without irrigation, seedlings were scored for water stress. Seedlings with open leaves were scored as unstressed; seedlings with partial leaf rolling were scored as moderately stressed; seedlings with completely rolled leaves were scored as severely stressed."}, "[11]": {"system": "corn, Dekalb hybrid 68-05", "test": "Corn field trial, Hays County, Tex., not irrigated", "type": "in vivo", "protocol": "Field trial was performed from April to July 2014 in Hays County, Tex. Dekalb hybrid 68-05 was planted at a density of 25,000 plants per acre (30″ rows with 8″ spacing). The field was top-dressed with 80 lbs/ac nitrogen. The field was not irrigated. AB01 treated plots were sprayed with a 2 gram per acre dose at the tasseling (VT) stage. Spraying was accomplished by resuspending solid AB01 in 0.5 mL of acetone, and diluting in water for a spray volume of 1 gallon per 500 square feet. Experiments were performed in triplicate The fraction of fertilized ears was measured by visual inspection of the ear silk at the R2-R3 stage. Unfertilized silks that appear yellow/green, while fertilized silks appear reddish brown. Completely unfertilized ears have silks that are completely yellow/green, fertilized ears appear brown, while ears with an incomplete degree of fertilized silks have a mixed population of silks. […] Ears were visually inspected at harvest to monitor kernel set (the number of fully formed kernels in the mature ear). […] Ears volume was measured in the field at the R3 stage to calculate ear volume. The length and circumference of each ear was measure, and volume was calculated by treating the ear as a cylinder. Approximately 100 ears from each plot were measured. […] After harvest, ears were shelled and kernels counted and weighed to quantitate the ‘thousand kernel weight’ (TKW), or average mass of kernels in the trial. AB01 treated plots yielded kernels averaging 30% higher mass than control plots. Ears from control and treated plots were harvested, shelled, and moisture tested to quantitate dry mass. Control plots averaged 120 bushels per acre, while AB01 treated plots averaged 143 bushels per acre, a 19% increase. Grain yield is calculated at 15% moisture, a standard measure of harvest output."}, "[12]": {"system": "Alfalfa seedlings", "test": "Drought tolerance in alfalfa seedlings", "type": "in vivo", "conditions": "1 mg/mL; irrigation stopped; approximately 7 days post-treatment", "protocol": "Alfalfa was grown from seeds for 14 days. Seedlings were treated with 1 mg/mL AB01 or mock treated. Irrigation was stopped after treatment and seedlings were monitored for symptoms of water limitation stress."}},
  "data": [
    {"smiles": "CC1=CC(OC=C2C(=O)OC3C4=C(CC23)C(O)CCC4(C)C)OC1=O", "note": "(stereo not drawn) [ent-strigol]", "values": [
      {"measurement": "activity in germination studies of Striga hermonthica seeds", "setting": "[1]", "result": 22, "unit": "%"}
    ]},
    {"smiles": "CC1=CC(O/C=C2\\C(=O)O[C@]3(C)CCC4C(C)(C)CCC[C@]4(C)[C@@H]23)OC1=O", "note": "(stereo partly shown) [AB01]", "values": [
      {"measurement": "symptoms of salinity shock (wilting)", "setting": "[2]", "result": "appeared unstressed"},
      {"measurement": "vigor under salinity stress", "setting": "[3]", "result": "significantly higher vigor"},
      {"measurement": "effect on phenotype of strigolactone-deficient mutant", "setting": "[4]", "result": "visible impact on the phenotype of the mutant"},
      {"measurement": "bioactivity in Striga germination assay", "setting": "[5]", "result": "graded dose-response behavior"},
      {"measurement": "bioactivity in Striga germination assay", "setting": "[5]; listed as Synthetic SL", "result": "potent bioactivity"},
      {"measurement": "bioactivity in Striga germination assay", "setting": "[5]; listed as synthetic SL", "result": "displayed bioactivity"},
      {"measurement": "bioactivity in Striga germination assay", "setting": "[5]; listed as synthetically produced SL", "result": "effective at germinating seeds of Striga asiatica"},
      {"measurement": "concentrations able to trigger germination", "setting": "[5]; Striga asiatica seeds conditioned 7 days, dilutions in water", "result": "≥ 1", "unit": "nanogram per liter"},
      {"measurement": "seeds triggered to germinate", "setting": "[5]; Striga asiatica seeds conditioned in the dark at 30 degrees for 7 days, dilutions in water, 1 nanogram per liter and greater", "result": "approximately 30%"},
      {"measurement": "symptoms of drought stress (wilting)", "setting": "[6]", "result": "appeared vigorous"},
      {"measurement": "germination triggering efficiency (appearance of haustoria)", "setting": "[7]", "result": "Significant differences in germination triggering efficiency"},
      {"measurement": "count of emergent Striga per plot", "setting": "[8]", "result": "few parasites"},
      {"measurement": "Striga emergence and Striga-related stress during season", "setting": "[8]; 3 replicate plots of 100 m2", "result": "few signs of Striga-related stress and parasite emergence"},
      {"measurement": "increase of grain yield compared to untreated plots", "setting": "[9]", "result": 25, "unit": "%"},
      {"measurement": "fraction of unstressed / severely water stressed seedlings", "setting": "[10]", "result": "decreased the fraction of severely stressed seedlings while increasing the fraction of unstressed seedlings in a dose-dependent manner"},
      {"measurement": "increase of harvest yield over control plots", "setting": "[11]; 2 gram per acre spray at VT", "result": 19, "unit": "%"},
      {"measurement": "ear volume", "setting": "[11]; 2 gram per acre spray at VT, R3 stage, approximately 100 ears per plot, vs mock treated", "result": "significantly higher volumes"},
      {"measurement": "kernel set at harvest", "setting": "[11]; 2 gram per acre spray at VT, vs mock treated", "result": "more complete kernel set and few signs of kernel abortion"},
      {"measurement": "fraction of fertilized ears (visual inspection of ear silk)", "setting": "[11]; 2 gram per acre spray at tasseling (VT), R2-R3 stage, vs mock treated control", "result": "decreased the fraction of unfertilized ears while increasing the fraction of fertilized ears"},
      {"measurement": "appearance of seedlings under water limitation", "setting": "[12]", "result": "appeared robust"}
    ]},
    {"smiles": "CC1=C[C@H](O/C=C2/C(=O)O[C@@H]3C4=C(CCCC4(C)C)C[C@H]23)OC1=O", "note": "[Formula 5-dS, 5-deoxystrigol, reference compound]", "values": [
      {"measurement": "germination triggering efficiency (appearance of haustoria)", "setting": "[7]", "result": "Significant differences in germination triggering efficiency"}
    ]}
  ]
}
